# From publication PMC7933930, “Development of a small molecule that corrects misfolding and increases secretion of Z α1‐antitrypsin” (EMBO Molecular Medicine, 2021)
# Key:
# [1] = Oral pharmacokinetics in rat; assay type: in vivo; conditions: Han Wistar, whole blood, ≤ 3 mg/kg, read-out: F (oral bioavailability)
# Experimental: […] Blood samples were taken into EDTA, diluted and mixed with acetonitrile containing internal standard (alprazolam) and centrifuged to precipitate proteins. Aliquots of the resultant supernatant were analysed by LC‐MS/MS, and concentrations of GSK716 in blood were determined. Non‐compartmental pharmacokinetic analysis (NCA) was carried out using Phoenix WinNonLin 6.3 (Certara L.P.). Free drug was measured in Z α1‐antitrypsin transgenic mice by dialysing tissue samples in rapid equilibrium dialysis cassettes.
# Aurora B (STK12) = Aurora B (STK12) (Homo sapiens, UniProt Q96GD4); test: Off‐target panel: Aurora B (STK12); assay type: biochemical; conditions: Inhibition, read-out: Mean (PXC50)
# Experimental: (§1) GSK716 selectivity and PK properties were profiled in order to investigate the suitability of GSK716 for progression into in vivo studies and the potential for taking it forward as a clinical candidate for testing in humans. Since GSK716 results in loss of inhibitory activity of α1‐antitrypsin, the effect of the compound was assessed on other closely related serpins. […] Furthermore, there were no off‐target effects in a panel of assays considered predictive of known safety liabilities that precluded further development of GSK716 (Table EV1).
# Serotonin transporter = Serotonin transporter (Homo sapiens, UniProt P31645); test: Off‐target panel: Serotonin transporter (DRX); assay type: cell-based
# Experimental: as §1
# CYP3A4 = molecular target: T1, CYP3A4 (Homo sapiens, UniProt P08684); test: CYP3A4 TDI fold IC50 shift (human liver microsomes, midazolam); assay type: in vitro ADME; conditions: probe midazolam (12.5 µM), read-out: time‐dependent inhibition of CYP3A4, fold shift in IC50
# T1 construct: pre‐incubated at 37°C with human liver microsomes (0.1 mg/ml); from tissue; host or cells: human liver microsomes
# Experimental: Seven concentrations of GSK716 (2, 4, 10, 20, 40, 100 and 200 µM) plus a vehicle control (0.25% v/v DMSO in pre‐incubation) were pre‐incubated at 37°C with human liver microsomes (0.1 mg/ml) and NADPH (1 mM) for a range of five pre‐incubation times (5, 10, 15, 20 and 30 min) with a 0 min pre‐incubation, in duplicate. At the end of the individual pre‐incubations, an aliquot of the pre‐incubation mixture was added to an incubation mixture in a 1:20 dilution for GSK716 with the specific CYP3A4 probe substrate, midazolam (12.5 µM, equivalent to 5xKm44) and NADPH (1 mM) for a 5 min. The reactions were terminated by transferring an aliquot of incubation mixture to methanol. The samples were mixed and then centrifuged at 2,500 rpm for 30 min at 4°C. Aliquots of the supernatant were diluted with formic acid (final concentration 0.1 % v/v) in deionised water containing internal standard (metoprolol; final concentration 0.03 mg/l). Samples were analysed by LC‐MS/MS.
# Adrenergic α2C = Adrenergic α2C (Homo sapiens, UniProt P18825); test: Off‐target panel: Adrenergic α2C; assay type: cell-based
# Experimental: as §1
# Serotonin 5HT1B = Serotonin 5HT1B (Homo sapiens, UniProt P28222); test: Off‐target panel: Serotonin 5HT1B; assay type: cell-based
# Experimental: as §1
# KCNQ1/minK = KCNQ1/minK (Homo sapiens, UniProt P51787); test: cell-based
# Experimental: as §1
# Bile Salt Export Pump = Bile Salt Export Pump (Homo sapiens, UniProt O95342); test: Off‐target panel: Bile Salt Export Pump; assay type: in vitro ADME; conditions: Inhibition, read-out: Mean (PXC50) (converted)
# Experimental: as §1
# Serotonin 5HT1B, sequence (P28222 whole entry): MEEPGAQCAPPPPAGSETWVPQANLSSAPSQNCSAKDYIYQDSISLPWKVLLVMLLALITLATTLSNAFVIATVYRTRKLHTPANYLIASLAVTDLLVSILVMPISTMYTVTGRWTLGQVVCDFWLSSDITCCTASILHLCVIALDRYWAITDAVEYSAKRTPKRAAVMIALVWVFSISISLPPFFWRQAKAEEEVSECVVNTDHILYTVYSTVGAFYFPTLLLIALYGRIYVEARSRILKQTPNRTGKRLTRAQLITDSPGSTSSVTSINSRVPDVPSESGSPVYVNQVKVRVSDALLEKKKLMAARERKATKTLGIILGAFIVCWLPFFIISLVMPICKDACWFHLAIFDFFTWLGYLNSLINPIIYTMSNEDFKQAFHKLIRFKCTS
# Adrenergic α2C, sequence (P18825 whole entry): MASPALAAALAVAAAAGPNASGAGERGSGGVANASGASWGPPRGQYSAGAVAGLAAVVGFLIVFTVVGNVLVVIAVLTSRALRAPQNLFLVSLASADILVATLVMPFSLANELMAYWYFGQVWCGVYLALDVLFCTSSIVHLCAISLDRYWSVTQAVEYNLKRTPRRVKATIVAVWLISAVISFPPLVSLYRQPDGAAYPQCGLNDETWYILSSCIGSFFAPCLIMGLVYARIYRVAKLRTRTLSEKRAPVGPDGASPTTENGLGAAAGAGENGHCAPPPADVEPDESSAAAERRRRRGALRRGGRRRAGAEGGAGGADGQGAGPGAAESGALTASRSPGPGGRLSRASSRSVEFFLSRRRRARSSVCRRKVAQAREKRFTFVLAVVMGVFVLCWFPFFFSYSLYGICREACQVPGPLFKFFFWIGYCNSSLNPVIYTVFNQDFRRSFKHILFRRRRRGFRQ
# Aurora B (STK12), sequence (Q96GD4 whole entry, species assumed): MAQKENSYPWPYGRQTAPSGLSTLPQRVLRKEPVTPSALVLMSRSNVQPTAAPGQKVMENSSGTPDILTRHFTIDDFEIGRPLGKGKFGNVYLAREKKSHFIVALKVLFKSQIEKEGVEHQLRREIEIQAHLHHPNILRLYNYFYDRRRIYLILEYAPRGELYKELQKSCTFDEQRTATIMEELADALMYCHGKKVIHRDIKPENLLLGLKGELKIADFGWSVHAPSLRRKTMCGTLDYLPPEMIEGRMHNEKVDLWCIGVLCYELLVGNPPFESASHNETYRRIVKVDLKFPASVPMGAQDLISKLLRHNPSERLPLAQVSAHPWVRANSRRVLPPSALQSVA
# Bile Salt Export Pump, sequence (O95342 whole entry, species assumed): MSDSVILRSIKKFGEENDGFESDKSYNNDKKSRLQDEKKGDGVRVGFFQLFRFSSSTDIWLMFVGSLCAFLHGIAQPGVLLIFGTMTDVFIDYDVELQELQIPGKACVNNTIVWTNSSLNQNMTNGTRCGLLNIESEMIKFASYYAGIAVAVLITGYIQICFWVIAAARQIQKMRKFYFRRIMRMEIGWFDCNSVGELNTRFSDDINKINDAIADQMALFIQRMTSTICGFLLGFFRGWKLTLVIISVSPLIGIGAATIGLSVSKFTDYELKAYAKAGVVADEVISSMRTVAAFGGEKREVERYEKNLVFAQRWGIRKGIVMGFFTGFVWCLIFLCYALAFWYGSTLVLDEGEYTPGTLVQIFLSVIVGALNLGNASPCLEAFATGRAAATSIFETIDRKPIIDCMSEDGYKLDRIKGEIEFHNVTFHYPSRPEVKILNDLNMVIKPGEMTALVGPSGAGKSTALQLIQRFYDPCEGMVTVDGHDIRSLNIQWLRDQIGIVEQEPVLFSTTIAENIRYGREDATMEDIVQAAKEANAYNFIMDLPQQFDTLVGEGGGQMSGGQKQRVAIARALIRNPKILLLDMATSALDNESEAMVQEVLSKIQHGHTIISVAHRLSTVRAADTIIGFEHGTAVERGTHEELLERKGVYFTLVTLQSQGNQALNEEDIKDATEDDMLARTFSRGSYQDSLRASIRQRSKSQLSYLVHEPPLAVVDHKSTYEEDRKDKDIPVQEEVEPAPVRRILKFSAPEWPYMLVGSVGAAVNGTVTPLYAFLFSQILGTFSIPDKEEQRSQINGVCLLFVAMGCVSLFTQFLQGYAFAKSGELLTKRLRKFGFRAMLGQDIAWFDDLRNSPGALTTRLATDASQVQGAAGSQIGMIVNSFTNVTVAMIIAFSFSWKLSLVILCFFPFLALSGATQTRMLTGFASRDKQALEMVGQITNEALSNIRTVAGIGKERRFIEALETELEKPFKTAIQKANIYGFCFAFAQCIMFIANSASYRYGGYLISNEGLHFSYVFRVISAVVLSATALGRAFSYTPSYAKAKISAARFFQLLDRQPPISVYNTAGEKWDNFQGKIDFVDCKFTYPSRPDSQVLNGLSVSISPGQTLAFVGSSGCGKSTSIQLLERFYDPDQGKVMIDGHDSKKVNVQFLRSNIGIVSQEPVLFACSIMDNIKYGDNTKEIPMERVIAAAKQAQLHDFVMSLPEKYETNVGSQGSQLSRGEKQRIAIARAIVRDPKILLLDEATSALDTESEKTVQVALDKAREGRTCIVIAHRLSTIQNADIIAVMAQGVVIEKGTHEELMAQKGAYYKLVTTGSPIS
# Serotonin transporter, sequence (P31645 whole entry): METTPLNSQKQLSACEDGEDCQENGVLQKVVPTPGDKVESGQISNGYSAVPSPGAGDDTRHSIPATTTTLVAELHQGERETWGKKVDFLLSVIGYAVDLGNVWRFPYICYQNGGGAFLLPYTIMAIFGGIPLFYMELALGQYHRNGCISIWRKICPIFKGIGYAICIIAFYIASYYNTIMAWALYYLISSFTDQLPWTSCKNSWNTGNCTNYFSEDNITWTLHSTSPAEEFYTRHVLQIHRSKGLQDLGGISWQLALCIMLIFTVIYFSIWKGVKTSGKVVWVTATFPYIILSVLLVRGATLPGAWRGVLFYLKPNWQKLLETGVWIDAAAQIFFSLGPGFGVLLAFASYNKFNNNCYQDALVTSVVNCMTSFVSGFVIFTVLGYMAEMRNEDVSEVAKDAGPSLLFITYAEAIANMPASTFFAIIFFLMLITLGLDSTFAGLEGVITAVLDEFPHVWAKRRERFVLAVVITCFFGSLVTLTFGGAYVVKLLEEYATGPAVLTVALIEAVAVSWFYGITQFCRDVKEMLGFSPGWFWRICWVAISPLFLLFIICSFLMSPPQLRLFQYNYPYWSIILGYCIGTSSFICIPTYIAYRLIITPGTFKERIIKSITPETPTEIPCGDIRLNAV
# T1 sequence (P08684 whole entry): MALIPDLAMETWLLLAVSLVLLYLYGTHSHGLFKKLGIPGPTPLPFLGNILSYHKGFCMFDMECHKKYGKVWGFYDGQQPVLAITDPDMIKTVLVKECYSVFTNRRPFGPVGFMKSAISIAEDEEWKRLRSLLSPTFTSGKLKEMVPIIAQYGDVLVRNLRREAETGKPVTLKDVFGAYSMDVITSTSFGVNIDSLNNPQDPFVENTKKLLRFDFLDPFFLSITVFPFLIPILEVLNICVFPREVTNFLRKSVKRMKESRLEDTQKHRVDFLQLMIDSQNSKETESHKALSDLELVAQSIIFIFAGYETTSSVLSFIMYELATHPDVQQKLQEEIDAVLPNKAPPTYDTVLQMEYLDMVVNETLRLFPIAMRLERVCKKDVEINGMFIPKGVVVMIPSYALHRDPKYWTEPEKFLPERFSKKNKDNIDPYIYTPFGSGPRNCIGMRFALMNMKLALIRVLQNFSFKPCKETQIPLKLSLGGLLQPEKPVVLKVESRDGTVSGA
structure (smiles),measurement,setting,value
CCC[C@@H](NC(=O)c1cccc2c1CC(=O)N2)[C@@H](O)c1cccc(F)c1C [GSK716],bioavailability,[1],48%
same,IC50,Aurora B (STK12),> 31.6 µM
same,IC50,Serotonin transporter,> 100 µM
same,IC50 shift,CYP3A4,1.59
same,EC50,Adrenergic α2C,> 100 µM
same,EC50,Serotonin 5HT1B,> 100 µM
same,IC50,Serotonin 5HT1B,> 100 µM
same,IC50,KCNQ1/minK,> 25.1 µM
same,IC50,Bile Salt Export Pump,100 µM
